Source: paper PMC9898036, “VIP152 is a selective CDK9 inhibitor with pre-clinical in vitro and in vivo efficacy in chronic lymphocytic leukemia” (Leukemia, 2022)
Where two headings read alike, the source gives them in different places.

Tests used:
[1] = target: TLK2 (Homo sapiens, UniProt Q86UE8); assay: KINOMEscan: TLK2; format: binding; conditions: 100 nM, read-out: Percent Control
[2] = target: AMPK-alpha1 (Homo sapiens, UniProt Q13131); assay: KINOMEscan: AMPK-alpha1; format: binding; conditions: 1000 nM, read-out: Percent Control
[3] = target: LRRK2(G2019S) (Homo sapiens, UniProt Q5S007, G2019S); assay: KINOMEscan: LRRK2(G2019S); format: binding; conditions: 1000 nM, read-out: Percent Control
[4] = target: FGFR1 (Homo sapiens, UniProt P11362); assay: KINOMEscan: FGFR1; format: binding; conditions: 1000 nM, read-out: Percent Control
[5] = target: TYK2(JH2domain-pseudokinase) (Homo sapiens, UniProt P29597); assay: KINOMEscan: TYK2(JH2domain-pseudokinase); format: binding; conditions: 100 nM, read-out: Percent Control
[6] = tested on: HG-3; assay: MTS proliferation assay; format: cell-based
[7] = target: EGFR(L747-E749del, A750P) (Homo sapiens, UniProt P00533, A750P/DEL747-749); assay: KINOMEscan: EGFR(L747-E749del, A750P); format: binding; conditions: 1000 nM, read-out: Percent Control
[8] = target: EPHA6 (Homo sapiens, UniProt Q9UF33); assay: KINOMEscan: EPHA6; format: binding; conditions: 1000 nM, read-out: Percent Control
[9] = tested on: MEC-1; assay: MTS proliferation assay; format: cell-based; conditions: Homo sapiens
[10] = target: JAK1(JH2domain-pseudokinase) (Homo sapiens, UniProt P23458); assay: KINOMEscan: JAK1(JH2domain-pseudokinase); format: binding; conditions: 1000 nM, read-out: Percent Control
[11] = target: DAPK3 (Homo sapiens, UniProt O43293); assay: KINOMEscan: DAPK3; format: binding; conditions: 1000 nM, read-out: Percent Control
[12] = target: MINK (Homo sapiens, UniProt Q8N4C8); assay: KINOMEscan: MINK; format: binding; conditions: 1000 nM, read-out: Percent Control
[13] = target: Glucocorticoid (Homo sapiens, UniProt P04150); assay: Eurofins Diversity Panel; format: binding; conditions: hum, Conc. 10 μM
[14] = target: TNNI3K (Homo sapiens, UniProt Q59H18); assay: KINOMEscan: TNNI3K; format: binding; conditions: 100 nM, read-out: Percent Control
[15] = target: RSK4(Kin.Dom.1-N-terminal) (Homo sapiens, UniProt Q9UK32); assay: KINOMEscan: RSK4(Kin.Dom.1-N-terminal); format: binding; conditions: 100 nM, read-out: Percent Control
[16] = target: EPHA8 (Homo sapiens, UniProt P29322); assay: KINOMEscan: EPHA8; format: binding; conditions: 1000 nM, read-out: Percent Control
[17] = target: ERK1 (Homo sapiens, UniProt P27361); assay: KINOMEscan: ERK1; format: binding; conditions: 1000 nM, read-out: Percent Control
[18] = target: ICK (Homo sapiens, UniProt Q9UPZ9); assay: KINOMEscan: ICK; format: binding; conditions: 1000 nM, read-out: Percent Control
[19] = target: GABAB1A (Homo sapiens, UniProt Q9UBS5); assay: Eurofins Diversity Panel; format: binding; conditions: hum, Conc. 10 μM
[20] = tested on: B-cells isolated from patients with treatment-naïve CLL; assay: Limiting-cell RNA sequencing (lcRNAseq); format: cell-based, human
Description: CLL cells isolated from patients were sorted for CD5^+/CD19^+ into lysis buffer. Libraries were prepared and sequenced as previously described.
P-TEFb’s role in regulating transcription through POLII CTD phosphorylation is a canonical function of this complex. To interrogate the transcriptional changes associated with VIP152 treatment, we treated B-cells, isolated from four patients with treatment-naïve CLL, with 1 µM VIP152 or DMSO for two hours followed by fluorescence-assisted cell sorting for 500 live (Sytox^−), CD45^+/CD5^+/CD19^+ cells (Fig. 3A). Our group has previously defined an analysis pipeline, named CLEAR, which identifies evenly distributed reads for differentially expressed gene (DEG) analysis. […] When we looked at the expression of these differentially abundant genes via an unsupervised clustered heatmap, we noted that there was high concordance between the patient samples with clustering dependent on treatment group (Fig. 3C). The treatment did induce decreased transcript abundance of genes previously reported to be controlled by CDK9 activity, namely JUNB, BTG1, and MCL1 [45, 46]. Downregulation of the anti-apoptotic MCL1 (LFC: −1.231056 & p-value = 0.02) likely contributes to the susceptibility of primary CLL cells to apoptosis (Fig. 2F, G). […] It has been established that AU-rich element (ARE) mRNA molecules are under tight temporal regulation and control a variety of cellular processes. Moreover, the relationship between P-TEFb mediated transcription and ARE-bearing mRNA has previously been described. […] We appreciate from our limiting-cell RNA sequencing experiments that the loss of tristetrapolin (ZFP36) transcripts (LFC: −4.02; adjusted p-value: 7.97*10^−40) and the upregulation of ribosomal transcripts, likely correspond to a possible compensatory mechanism by which these cells attempt to improve translational output and maximize transcript maintenance in response to VIP152-induced transcriptional shutdown. […] We looked at transcripts which had been shown by photoactivatable ribonucleoside cross-linking and immunoprecipitation (PAR-CLIP) to interact with ZFP36 [50]. […] Additionally, we chose to look at BCL2 transcript stability as ZFP36L1 has been shown in B cell lymphoma to negatively regulate BCL2 transcript stability. We performed an mRNA stability study on patient samples treated with VIP152 with Actinomycin-D and observed an increase in the half-lives of each of these transcripts including BCL2 (Fig. 3H–M).

[21] = target: MST2 (Homo sapiens, UniProt Q13188); assay: KINOMEscan: MST2; format: binding; conditions: 1000 nM, read-out: Percent Control
[22] = target: TNIK (Homo sapiens, UniProt Q9UKE5); assay: KINOMEscan: TNIK; format: binding; conditions: 100 nM, read-out: Percent Control
[23] = target: LZK (Homo sapiens, UniProt O43283); assay: KINOMEscan: LZK; format: binding; conditions: 1000 nM, read-out: Percent Control
[24] = target: FRK (Homo sapiens, UniProt P42685); assay: KINOMEscan: FRK; format: binding; conditions: 1000 nM, read-out: Percent Control
[25] = target: PFPK5(P.falciparum) (Plasmodium falciparum, UniProt P61075); assay: DiscoverX KINOMEscan kinase profiling: PFPK5(P.falciparum); format: binding; conditions: PFPK5(P.falciparum) (Entrez MAL13P1.279); 100 nM; read-out: Percent Control

Sequence of GABAB1A (Q9UBS5 15-961 limits assumed): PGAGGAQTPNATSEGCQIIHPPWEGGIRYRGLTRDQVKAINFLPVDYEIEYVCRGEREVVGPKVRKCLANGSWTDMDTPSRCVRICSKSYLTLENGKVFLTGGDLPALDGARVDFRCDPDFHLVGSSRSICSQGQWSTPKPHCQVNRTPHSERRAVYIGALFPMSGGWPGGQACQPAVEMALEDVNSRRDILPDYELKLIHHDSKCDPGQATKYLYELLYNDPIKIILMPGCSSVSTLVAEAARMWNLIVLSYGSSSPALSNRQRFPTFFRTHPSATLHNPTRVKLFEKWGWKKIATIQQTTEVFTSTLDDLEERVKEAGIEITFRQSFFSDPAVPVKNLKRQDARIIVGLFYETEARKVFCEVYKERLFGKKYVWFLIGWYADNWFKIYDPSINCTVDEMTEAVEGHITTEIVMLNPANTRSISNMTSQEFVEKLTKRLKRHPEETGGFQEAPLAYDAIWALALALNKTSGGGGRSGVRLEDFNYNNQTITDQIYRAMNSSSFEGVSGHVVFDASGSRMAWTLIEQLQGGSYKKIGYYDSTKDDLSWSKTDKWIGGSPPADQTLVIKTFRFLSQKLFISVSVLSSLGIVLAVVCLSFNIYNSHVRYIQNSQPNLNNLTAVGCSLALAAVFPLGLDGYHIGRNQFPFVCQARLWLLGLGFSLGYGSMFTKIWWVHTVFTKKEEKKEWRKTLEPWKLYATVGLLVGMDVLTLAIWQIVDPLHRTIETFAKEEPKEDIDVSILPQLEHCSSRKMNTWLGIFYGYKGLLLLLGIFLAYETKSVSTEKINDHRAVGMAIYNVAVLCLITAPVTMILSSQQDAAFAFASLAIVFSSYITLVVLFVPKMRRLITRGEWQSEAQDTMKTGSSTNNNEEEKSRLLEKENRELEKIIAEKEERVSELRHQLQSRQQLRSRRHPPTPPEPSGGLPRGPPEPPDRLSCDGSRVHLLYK
Sequence of TLK2 (Q86UE8 whole entry): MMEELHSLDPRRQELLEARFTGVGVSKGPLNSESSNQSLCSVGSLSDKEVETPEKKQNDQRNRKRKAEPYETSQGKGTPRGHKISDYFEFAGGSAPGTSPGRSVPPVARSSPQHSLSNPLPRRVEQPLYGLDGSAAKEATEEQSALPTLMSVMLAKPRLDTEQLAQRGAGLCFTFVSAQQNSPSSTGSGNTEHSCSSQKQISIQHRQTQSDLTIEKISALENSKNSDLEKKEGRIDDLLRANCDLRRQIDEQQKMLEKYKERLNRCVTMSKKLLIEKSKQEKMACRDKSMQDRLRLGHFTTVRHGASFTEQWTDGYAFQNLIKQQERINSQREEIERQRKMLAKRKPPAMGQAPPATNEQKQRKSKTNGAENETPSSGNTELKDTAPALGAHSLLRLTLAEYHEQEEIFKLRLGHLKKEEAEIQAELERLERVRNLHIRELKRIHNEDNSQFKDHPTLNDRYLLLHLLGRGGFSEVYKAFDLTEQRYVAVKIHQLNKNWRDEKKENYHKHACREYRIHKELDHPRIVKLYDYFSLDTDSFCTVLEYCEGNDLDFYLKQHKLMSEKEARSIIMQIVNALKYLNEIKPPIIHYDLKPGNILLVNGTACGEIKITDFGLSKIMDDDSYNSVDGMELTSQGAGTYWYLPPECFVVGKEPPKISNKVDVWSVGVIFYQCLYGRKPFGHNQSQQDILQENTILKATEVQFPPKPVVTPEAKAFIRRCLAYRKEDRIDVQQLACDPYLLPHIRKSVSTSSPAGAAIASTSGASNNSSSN
Sequence of LRRK2(G2019S) (Q5S007 whole entry G2019S): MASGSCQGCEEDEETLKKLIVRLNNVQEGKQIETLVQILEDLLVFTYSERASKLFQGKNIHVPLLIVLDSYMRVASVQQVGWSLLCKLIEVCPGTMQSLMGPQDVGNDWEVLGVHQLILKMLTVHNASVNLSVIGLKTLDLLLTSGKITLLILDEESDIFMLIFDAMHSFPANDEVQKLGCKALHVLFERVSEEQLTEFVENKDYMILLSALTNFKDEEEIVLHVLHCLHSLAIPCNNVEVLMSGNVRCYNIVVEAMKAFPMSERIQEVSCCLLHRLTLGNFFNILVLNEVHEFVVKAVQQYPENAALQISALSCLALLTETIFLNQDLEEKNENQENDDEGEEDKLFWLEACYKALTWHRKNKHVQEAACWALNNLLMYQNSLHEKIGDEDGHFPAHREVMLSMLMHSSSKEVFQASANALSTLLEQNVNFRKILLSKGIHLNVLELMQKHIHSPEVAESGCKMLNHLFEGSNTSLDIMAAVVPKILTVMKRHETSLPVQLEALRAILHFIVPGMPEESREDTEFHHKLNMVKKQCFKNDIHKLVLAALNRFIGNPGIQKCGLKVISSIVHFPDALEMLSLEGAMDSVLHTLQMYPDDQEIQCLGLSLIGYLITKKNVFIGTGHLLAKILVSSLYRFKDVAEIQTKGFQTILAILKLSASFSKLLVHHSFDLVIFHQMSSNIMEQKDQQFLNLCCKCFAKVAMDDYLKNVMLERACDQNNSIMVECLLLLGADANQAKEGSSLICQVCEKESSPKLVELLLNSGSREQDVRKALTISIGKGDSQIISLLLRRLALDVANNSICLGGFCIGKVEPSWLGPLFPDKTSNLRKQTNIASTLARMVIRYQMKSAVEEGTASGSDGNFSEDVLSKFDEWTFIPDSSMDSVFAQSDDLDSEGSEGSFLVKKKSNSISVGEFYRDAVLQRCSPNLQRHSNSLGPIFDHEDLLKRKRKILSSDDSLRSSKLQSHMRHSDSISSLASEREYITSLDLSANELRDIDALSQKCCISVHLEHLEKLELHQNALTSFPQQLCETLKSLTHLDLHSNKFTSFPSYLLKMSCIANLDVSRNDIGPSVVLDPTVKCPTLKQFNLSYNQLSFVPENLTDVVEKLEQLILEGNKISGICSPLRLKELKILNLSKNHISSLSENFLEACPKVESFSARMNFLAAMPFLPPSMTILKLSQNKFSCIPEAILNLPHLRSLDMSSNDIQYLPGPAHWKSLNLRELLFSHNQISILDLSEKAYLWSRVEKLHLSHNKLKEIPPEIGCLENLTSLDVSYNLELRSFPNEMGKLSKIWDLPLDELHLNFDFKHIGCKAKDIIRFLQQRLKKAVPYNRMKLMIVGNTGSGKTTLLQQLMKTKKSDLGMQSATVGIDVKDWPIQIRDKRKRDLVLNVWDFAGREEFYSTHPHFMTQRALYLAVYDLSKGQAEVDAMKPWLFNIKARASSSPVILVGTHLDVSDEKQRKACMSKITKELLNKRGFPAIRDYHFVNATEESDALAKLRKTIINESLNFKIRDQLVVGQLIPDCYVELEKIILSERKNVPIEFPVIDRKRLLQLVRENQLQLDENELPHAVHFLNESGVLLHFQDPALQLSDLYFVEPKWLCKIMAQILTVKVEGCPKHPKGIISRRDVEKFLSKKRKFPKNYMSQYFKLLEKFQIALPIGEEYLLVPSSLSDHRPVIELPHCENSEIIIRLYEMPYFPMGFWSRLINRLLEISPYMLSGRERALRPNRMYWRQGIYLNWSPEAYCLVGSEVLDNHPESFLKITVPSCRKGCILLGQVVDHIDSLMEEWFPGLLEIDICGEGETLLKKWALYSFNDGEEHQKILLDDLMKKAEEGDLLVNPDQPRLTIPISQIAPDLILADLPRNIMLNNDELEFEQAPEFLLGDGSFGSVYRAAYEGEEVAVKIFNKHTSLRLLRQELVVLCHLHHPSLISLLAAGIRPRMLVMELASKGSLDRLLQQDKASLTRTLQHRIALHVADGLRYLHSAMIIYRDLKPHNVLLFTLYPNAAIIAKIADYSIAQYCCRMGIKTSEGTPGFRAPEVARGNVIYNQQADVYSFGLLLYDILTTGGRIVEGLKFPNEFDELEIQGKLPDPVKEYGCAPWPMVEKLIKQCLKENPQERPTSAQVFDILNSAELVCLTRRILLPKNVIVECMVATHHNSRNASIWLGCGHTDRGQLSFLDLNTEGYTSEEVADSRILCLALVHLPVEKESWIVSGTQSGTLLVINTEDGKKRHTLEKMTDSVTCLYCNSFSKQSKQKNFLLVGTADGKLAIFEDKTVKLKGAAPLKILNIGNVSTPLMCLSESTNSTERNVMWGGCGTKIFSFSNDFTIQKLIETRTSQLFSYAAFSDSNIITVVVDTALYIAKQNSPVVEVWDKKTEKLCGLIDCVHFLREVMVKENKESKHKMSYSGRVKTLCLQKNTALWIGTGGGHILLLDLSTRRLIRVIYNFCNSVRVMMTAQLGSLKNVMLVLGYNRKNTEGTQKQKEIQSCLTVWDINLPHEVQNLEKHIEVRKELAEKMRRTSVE
Sequence of DAPK3 (O43293 whole entry): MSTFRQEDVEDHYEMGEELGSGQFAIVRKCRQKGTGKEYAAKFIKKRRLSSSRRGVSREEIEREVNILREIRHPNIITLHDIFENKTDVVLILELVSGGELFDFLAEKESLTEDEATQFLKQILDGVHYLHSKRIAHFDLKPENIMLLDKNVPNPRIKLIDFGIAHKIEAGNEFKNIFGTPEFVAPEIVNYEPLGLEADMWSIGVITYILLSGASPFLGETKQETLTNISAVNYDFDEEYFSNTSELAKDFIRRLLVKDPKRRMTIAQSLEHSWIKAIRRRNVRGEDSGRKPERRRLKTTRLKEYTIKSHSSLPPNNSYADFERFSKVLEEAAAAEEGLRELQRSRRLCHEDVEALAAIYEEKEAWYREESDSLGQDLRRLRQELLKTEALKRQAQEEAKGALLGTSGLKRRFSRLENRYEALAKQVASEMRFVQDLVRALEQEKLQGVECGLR
Sequence of TYK2(JH2domain-pseudokinase) (P29597 556-888 limits assumed): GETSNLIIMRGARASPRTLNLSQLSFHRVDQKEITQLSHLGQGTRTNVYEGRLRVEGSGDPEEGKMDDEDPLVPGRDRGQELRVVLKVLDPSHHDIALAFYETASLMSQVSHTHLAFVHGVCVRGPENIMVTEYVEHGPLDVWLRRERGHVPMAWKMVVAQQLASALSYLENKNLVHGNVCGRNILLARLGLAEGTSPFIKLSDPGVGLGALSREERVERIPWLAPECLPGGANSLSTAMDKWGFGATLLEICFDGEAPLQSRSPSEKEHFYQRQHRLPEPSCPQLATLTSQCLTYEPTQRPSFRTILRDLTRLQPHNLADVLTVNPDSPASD

SMILES: COc1cc(F)ccc1-c1cc(Nc2cc(CS(C)(=N)=O)ccn2)ncc1F (stereo not drawn) [VIP152]
- remaining binding at 0.1 µM [1]: 100%
- remaining binding at 1 µM [2]: 91%
- remaining binding at 1 µM [3]: 86%
- remaining binding at 1 µM [4]: 83%
- remaining binding at 0.1 µM [5]: 100%
- IC50 ([6]; Homo sapiens, 24, 48, and 72 h, read-out: proliferation IC50): 50 to 67 nM
- IC50 ([6]; Homo sapiens, two-hour drugging followed by washout, MTS after 72 h, read-out: 50% growth inhibition): 970 nM
- remaining binding at 1 µM [7]: 80%
- remaining binding at 1 µM [8]: 90%
- IC50 ([9]; MEC1, 24, 48, and 72 h, read-out: proliferation IC50): 150 to 1000 nM
- IC50 ([9]; MEC1, two-hour drugging followed by washout, MTS after 72 h, read-out: 50% growth inhibition): 1700 nM
- remaining binding at 1 µM [10]: 96%
- remaining binding at 1 µM [11]: 91%
- remaining binding at 1 µM [12]: 29%
- inhibition at 10 µM [13]: 30%
- remaining binding at 0.1 µM [14]: 100%
- remaining binding at 0.1 µM [15]: 100%
- remaining binding at 1 µM [16]: 100%
- remaining binding at 1 µM [17]: 82%
- remaining binding at 1 µM [18]: 9%
- inhibition at 10 µM [19]: 1%
- MCL1 transcript LFC ([20]; 1 µM, two hours vs DMSO): −1.231
- ZFP36 transcript LFC ([20]; 1 µM, two hours vs DMSO): −4.02
- log2FoldChange A1BG ([20]; VIP152 2hr vs DMSO 2hr): 0.4323
- log2FoldChange A1BG-AS1 ([20]; VIP152 2hr vs DMSO 2hr): 0.777
- log2FoldChange AAAS ([20]; VIP152 2hr vs DMSO 2hr): 0.1502
- log2FoldChange AAGAB ([20]; VIP152 2hr vs DMSO 2hr): 0.6327
- log2FoldChange AAMDC ([20]; VIP152 2hr vs DMSO 2hr): 0.4489
- remaining binding at 1 µM [21]: 96%
- remaining binding at 0.1 µM [22]: 100%
- remaining binding at 1 µM [23]: 100%
- remaining binding at 1 µM [24]: 47%
- remaining binding at 0.1 µM [25]: 100%
